# A melting point compilation (Tetko et al.)
row,Structure (SMILES),melting point [°C]
1,NC(=O)C1CCCN1C(=O)NC(=O)CCl (centres undefined),126 to 128
2,O=[N+]([O-])c1cc(Br)ccc1S,123 to 125
3,CC(=O)c1ccc(-c2ccc(C(=O)O)o2)cc1,219 to 221
4,CCOc1cc(C=O)ccc1OCc1c(F)cccc1Cl,111 to 113
5,C=CCOc1ccc(O)cc1,36 to 38
6,CCOC(=O)C(C)(C#N)Cc1ccncc1 (centres undefined),56 to 58
7,Cc1[nH]c(SCC(=O)O)nc1Cc1ccccc1,183 to 185
8,COc1cc(Cl)c(C)cc1N,102 to 103
9,CC(C)n1[nH]ccc1=NC(=O)Nc1ccccc1,110 to 112
10,O=C(O)c1c(F)cccc1Br,153 to 155
11,CC(C)(C)C(=O)NO,169 to 171
12,Nc1ncc(Cc2ccc(Br)cc2)s1,129 to 131
13,CC(C)Oc1cc(Br)ccc1C(=O)O,86 to 88
14,Cc1c(C=O)c2ccccn2c1C=O,214 to 216
15,NC(=O)c1cccc(CS)n1,61 to 63
16,Cc1ccc(C)c(-n2nnnc2S)c1,129 to 131
17,O=C(O)c1c[nH]nc1-c1ccccc1,286 to 288
18,Clc1nc(-c2cccnc2)nc2sc(-c3ccccc3)cc12,179 to 182
19,O=C(NC1CCCCCC1)c1ccco1,99 to 101
20,COc1ccc(CNC(=O)C(C#N)=CN(C)C)cc1,128 to 130
21,COCc1ccc(CNC(=O)CCl)cc1,83 to 85
22,Nc1ccc(CCN2CCSCC2)cc1,88 to 90
23,O=Cc1ccc(-c2ccc(Cl)c(Cl)c2)s1,126 to 128
24,O=[N+]([O-])c1cnn(CCCl)c1,55 to 57

row,Structure (SMILES),melting point [°C]
1,O=C(O)CCNC(=O)C1CCCC1,128 to 130
2,NC(=NO)c1ccsc1,66 to 68
3,O=C1C2C3C=CC(C3)C2C(=O)N1c1cccc(Br)c1 (centres undefined),192 to 194
4,Nc1cc(Br)cnc1Br,137 to 139
5,Clc1cc(Cl)c2c(n1)NCC2,149 to 151
6,COc1ccc(-c2nc(N)sc2-c2ccc(OC)cc2)cc1,207 to 209
7,Cn1nc(C(=O)O)cc1-c1ccc2c(c1)OCO2,214 to 216
8,CC(CC(=O)c1cccc(Br)c1)C(=O)O (centres undefined),95 to 97
9,Cc1c(F)cc(C#N)cc1[N+](=O)[O-],75 to 77
10,O=C(O)c1ccccc1Sc1ccc(Br)cn1,183 to 185
11,CC(=O)c1nnn(-c2cccc(Br)c2)c1C,74 to 76
12,COc1ccc(-n2ccnc2S)c(C)c1,238 to 240
13,Cc1nc(-c2cccnc2)nc(Cl)c1C,72 to 74
14,Nc1ccc(OCC2CCCCC2)cc1,53 to 55
15,NS(=O)(=O)c1ccc(CNCC(F)(F)F)cc1,129 to 131
16,COC(=O)c1c(N)sc2c1CCC2,149 to 151
17,Cc1ccc(-n2nnc(C(=O)O)c2C(C)C)cc1,176 to 178
18,CCc1c(C(=O)O)cnn1-c1ccccc1,159 to 161
19,Cc1cc(NC(=O)Nc2cc(C)nn2C(C)(C)C)n(C(C)(C)C)n1,235 to 237
20,NS(=O)(=O)CCSc1ccccc1,106 to 108
21,COc1ccc(O)c(C(C)N)c1 (centres undefined),123 to 125
22,Cc1oc(C(N)=O)cc1C(=O)CCl,197 to 199
23,CCC(=O)c1ccc(N(C)C)cc1,104 to 106
24,O=Cc1ccc(-c2ccc(C(F)(F)F)cc2)o1,106 to 108

row,Structure (SMILES),melting point [°C]
1,O=C(O)c1cccc([N+](=O)[O-])c1N1CCOCC1,196 to 198
2,COC(=O)C(=O)C=C(C)OC,37 to 39
3,NC(=O)NCc1ccc(C(=O)O)cc1,291 to 293
4,CCCCS(=O)(=O)NCC(=O)O,65 to 67
5,COC(=O)c1cc(Br)cc(S(N)(=O)=O)c1,138 to 140
6,O=C(O)c1ccc(Cl)c(N2CCCS2(=O)=O)c1,212 to 214
7,O=C(O)c1ccc(F)c(I)c1,169 to 171
8,CC(COc1ccccc1)C(=O)O (centres undefined),84 to 86
9,O=C(O)Cn1cnc(-c2ccccc2)n1,179 to 181
10,CC(C)S(=O)(=O)Cc1ccc(N)cc1,134 to 136
11,O=C(NCCc1ccccc1)n1ccnc1,103 to 105
12,CS(=O)c1ccc(N)cc1F (centres undefined),109 to 111
13,C=CC(=O)Nc1ccc(OC)cc1[N+](=O)[O-],124 to 126
14,O=C(O)c1ccc(S(=O)(=O)C(F)(F)F)cc1,244 to 246
15,CNc1ncccn1,60 to 62
16,CCOCCCNC(=S)NCc1ccc(OC)cc1,39 to 41
17,Cc1[nH]c2ccccc2c1C(=O)CCl,227 to 229
18,CNS(=O)(=O)Cc1ccc(C#N)cc1,154 to 158
19,Oc1ccc(-n2cccn2)cc1,107 to 109
20,Cc1nn(C)c2ncc(C=O)cc12,107 to 109
21,CCOc1ccc(C(=O)c2ccccc2Cl)cc1,86 to 88
22,O=C(O)c1cc(F)cnc1Cl,143 to 144
23,O=C(O)c1nc(-c2cccs2)n(-c2cccc(F)c2)n1,162 to 164
24,COc1cc(CC(=O)O)ccc1C,74 to 76

row,Structure (SMILES),melting point [°C]
1,CC(Cl)C(=O)NC1CC1 (centres undefined),67 to 71
2,Cc1ccc2c(O)c(C(=O)O)cnc2n1,279 to 281
3,NS(=O)(=O)Cc1ccc(F)cc1,122 to 124
4,CC(C)(C)OC(=O)N1CCN(c2ncccc2C#N)CC1,65 to 67
5,COC(=O)COc1cc(C(=O)O)ccc1OC,144 to 146
6,Cn1ncc(C(=O)O)c1N,139 to 141
7,Cc1cc(NC(=O)CCl)on1,106 to 108
8,NCc1cc(Br)c2c(c1)OCO2,49 to 51
9,CC(=O)N(c1nc(C=O)cs1)C1CC1,112 to 114
10,CC(N)(C#N)Cn1cc(Br)cn1 (centres undefined),60 to 62
11,Cc1cccc([N+](=O)[O-])c1S(=O)(=O)Cl,91 to 93
12,O=C(CCl)N1c2ccccc2CCc2ccccc21,96 to 98
13,Cc1n[nH]c(C)c1CC(=O)O,151 to 155
14,O=S(=O)(NC1CCCNC1)c1cccc(F)c1 (centres undefined),137 to 139
15,O=C(CCc1ccccc1)c1ccccc1O,36 to 37
16,COc1ccc(NC(C)=O)cc1N,106 to 108
17,O=C(O)c1ccc(C(=O)Nc2ccccc2)cc1,309 to 311
18,Nc1cc(S(=O)(=O)NC2CC2)ccc1O,119 to 121
19,CC1(C)NC(=O)N(CCCC(=O)O)C1=O,97 to 99
20,Nc1cccc(Oc2ncc(Br)cn2)c1,92 to 94
21,Fc1ncccc1OCc1ccccc1,34 to 36
22,Cc1nc(S)nc(O)c1C,276 to 278
23,CSc1cc(C(=O)O)c(Cl)cc1Cl,192 to 194
24,Cc1ccc(F)c(N)c1C(=O)O,114 to 116

row,Structure (SMILES),melting point [°C]
1,O=C(O)CNC(=O)Nc1ccccc1,196 to 198
2,O=C(O)Cc1ccc(S(=O)(=O)C(F)F)cc1,139 to 141
3,Nc1nncn1Cc1ccccc1,210 to 212
4,CCOc1ccc(NC2CCN(CC(F)(F)F)CC2)cc1,54 to 56
5,COC(=O)c1ccc2c(=O)[nH]c(C)nc2c1,274 to 276
6,Cc1cc(=O)oc2cc(OCC(=O)O)ccc12,206 to 208
7,Nc1nc(C2CC2)c(C(=O)O)s1,99 to 101
8,Cc1nc(C(=O)O)ccc1C#N,150 to 152
9,COc1cc(C=O)cc(Br)c1OCc1ccccc1,48 to 50
10,CC(C)(C)c1nc2cc(N)ccc2o1,111 to 113
11,Cc1csc(SCc2ccccc2C(=O)O)n1,159 to 162
12,CNS(=O)(=O)c1c(C)noc1C,70 to 72
13,Clc1ccc(-c2cc(CBr)on2)cc1,116 to 118
14,CS(=O)(=O)c1ccc(F)c(S(=O)(=O)Cl)c1,122 to 124
15,Nc1oc2ccccc2c(=O)c1C=O,249 to 251
16,OC1COc2ccc(Br)cc21 (centres undefined),79 to 81
17,COc1ccc(NS(=O)(=O)Cc2ccc(N)cc2)cc1,153 to 155
18,CC1=C(C(=O)O)Cc2ccccc2O1,234 to 236
19,NC(=NO)c1cccc(CN2CCOCC2)c1,155 to 157
20,CS(=O)(=O)c1cccc(C(N)c2ccc(F)cc2)c1 (centres undefined),88 to 90
21,N#Cc1cc(CO)ccn1,109 to 111
22,COc1cc(C)c(CSCC(=O)O)cc1OC,63 to 65
23,Cc1ccc(S(=O)(=O)N(C)C)cc1N,172 to 174
24,Nc1cccc(CN2CCN(c3ccccn3)CC2)c1,168 to 170

row,Structure (SMILES),melting point [°C]
1,Nc1c(-c2ccccc2)nc2ccccn12,152 to 155
2,O=C(O)CCC(NC(=O)Cc1ccc2ccccc2c1)C(=O)O (centres undefined),173 to 175
3,C#Cc1cccc(OC)n1,47 to 49
4,CCNC(=O)c1cccc(C)c1O,64 to 66
5,COc1ccc2c(c1)OCC2CC(=O)O (centres undefined),94 to 96
6,O=S(=O)(c1ccc(N=C=S)cc1)N1CCOCC1,99 to 101
7,c1cncc(-c2ncc[nH]2)c1,208 to 210
8,Cc1ccc(Oc2ccc(N)cc2Cl)c(Br)c1,110 to 112
9,NNC(=O)c1cn(-c2ccccc2)nc1-c1ccccc1,161 to 163
10,O=C(O)C(c1ccccc1)n1cccn1 (centres undefined),141 to 143
11,N#Cc1ccc(C2OCCO2)cc1,45 to 47
12,Cc1ccc(C(=O)Nc2nc3ccc(N)cc3s2)s1,250 to 252
13,COC(=O)CSc1cncc(Cl)n1,32 to 34
14,CCCc1[nH]nc(C(=O)O)c1[N+](=O)[O-],158 to 160
15,CN(C)CCCNS(=O)(=O)c1ccc(Cl)c([N+](=O)[O-])c1,98 to 100
16,O=S(=O)(F)Cc1ccc(Cl)nc1,81 to 83
17,O=C(NC(C(=O)O)c1ccccc1)OCC1c2ccccc2-c2ccccc21 (centres undefined),170 to 172
18,Nc1nc(-c2ccccc2Cl)cs1,142 to 144
19,O=[N+]([O-])c1cccc(OCC2CO2)c1 (centres undefined),63 to 65
20,Cc1ccc([N+](=O)[O-])c2cccnc12,87 to 89
21,COc1ccc(Cl)cc1C(C)=O,33 to 35
22,O=C1C(Br)CCN1c1c(F)cccc1F (centres undefined),79 to 81
23,O=C(O)Cn1ncn2nccc2c1=O,213 to 215
24,Cc1ccc(S(=O)(=O)Cl)c(C)c1OCC(=O)O,144 to 146
